Test results published in PMC12704579, “New Anticancer 4‐Aryldihydropyrimidinone‐5‐Carboxylates Targeting Hsp90” (Chemical Biology & Drug Design, 2025).
“And” between values parts separate entries of the source, which are not always exact repeats. Equal values may be shown once.

Assays:
HEK-293 cells = test: CellTiter-Blue cell viability assay, HEK-293 (24 h); type: cell-based, human; conditions: Homo sapiens, HEK293; 24 h incubation time
Experimental: (§1) Human Embryonic Kidney cells (HEK‐293) and human breast cancer cells (MCF‐7, MDA‐MB‐231 and HCC1954) were cultured in complete growth media: […] 1X (Gibco); 10% v/v Fetal Bovine Serum (FBS, Sigma Dorset UK) and L‐glutamine (2 mM, Invitrogen). SW‐480‐WT cells were maintained in selective media made up of Dulbecco's Modified Eagle Medium (Gibco), enriched with […] of Geneticin Selective Antibiotic (G418 Sulfate; Gibco, Thermo Fisher). Cells were incubated at a 5% CO2 atmosphere at 37°C.
(§2) Cells were cultured in 96‐well plates in 90 μL at a seeding density of 1 × 10^6 cells per well. Compound samples were prepared at different concentrations (1 mM, 100 μM, 10 μM, 1 μM, 100 nM, 10 nM) and 10 μL of each concentration was seeded in each well. Two different negative controls were used: DMSO 0.01% and 0.001%. Paclitaxel (30% w/v) was used as a positive control. Cells were treated for 24 h after which 20 μL of CellTitre‐Blue reagent (Promega, Southampton, UK) was added and incubated for 2 h at 37°C in 5% CO2. Fluorescence was measured at 560/590 nm on a Fluorostar Optima plate reader (BMG Labtech, Bucks, UK). Assay end points were normalised to 0% (DMSO only) and fitted to a semilog plot using at least n = 3 technical replicates (n = 6 for DMSO control and paclitaxel control) and N = 3 independent replicates. The curve fit was performed using the GraphPad Prism software and the standard Hill equation.
(§3) In view of previous reports on Hsp90 inhibitors and their effects on cancer cell viability (Eachkoti et al. [2014]) and clonogenicity (Kinzel et al. [2016]), new compounds were tested for inhibition of cell viability within both non‐tumourigenic (HEK‐293) and breast cancer cell lines (MDA‐MB‐231) at a fixed concentration of 10 μM. The well‐established CellTiter‐Blue endpoint assay was used to assess cell viability. New compounds were also assessed in a colony forming assay (MCF‐7 breast cancer cell line), used as an efficacy screening to provide an indication of the inhibition of clonogenicity for these small molecules (Table 1).

[1] = as above; type: cell-based, human; conditions: human, HEK-293 cells, CellTiter-Blue, 24 h incubation, 10 μM test compound, standardised to DMSO control
Experimental: as §1, §2, §3

[2] = target: T1, Recombinant human Hsp90 alpha protein (Homo sapiens, UniProt P07900); test: Transcreener ADP FP Hsp90 ATPase assay; type: biochemical; conditions: Recombinant human HSP90, 100 μM ATP; read-out: ATPase assay on rh-Hsp90 IC50
T1 construct: human full‐length protein, expressed in Escherichia coli; His tag (C); purchased Abcam ab80369; host or cells: Escherichia coli
Experimental: Transcreener ADP (cat. no. 3004‐1K) and ADP2 (cat. no. 3010‐1K) FP assay kits were obtained from Bellbrook Laboratories. Recombinant human Hsp90 alpha protein (active), human full‐length protein, expressed in Escherichia coli with > 90% purity and C‐terminus His tag, was purchased from Abcam (ab80369). All FP assays were carried out in black, 384‐well, low‐volume, polystyrene nonbinding microplates from Corning Life Sciences. All basic buffer components were obtained from Sigma‐Aldrich Chemical Co. 17‐AAG (Figure 1) was obtained from Abcam. Using the Transcreener ADP FP kit, the conditions for the recombinant human Hsp90 ATPase reaction were 50 mM HEPES (pH 7.4), 20 mM KCl, 2 mM EGTA, 4 mM MgCl2, and 0.01% Brij‐35 in a 10‐μL total assay volume. The final assay concentration of ATP was 100 μM for Hsp90. Due to the relatively low level of ATPase activity compared with other enzymes, the plate was incubated at 37°C and run over 1, 2 and 3 h time points. The reaction was stopped, and the ADP was detected by adding 10 μL of 50 mM HEPES (pH 7.4), 400 mM NaCl, 20 mM EDTA, 0.01% Brij35, 75 μg/mL anti‐ADP monoclonal antibody, and 4 nM ADP far red tracer. The plate was sealed, centrifuged at 600 g for 1 min, and left at room temperature for 1 h. FP readings for the Hsp90 ATPase Transcreener assays were performed on a Clariostar plate reader ([…]). A blank mP signal composed of protein, antibody, labelled ADP, but no ATP substrate gave similar mP values to those seen in the no‐protein controls. The upper limit of the assay window was defined by a no‐protein control, and the mP in the presence of heat shock protein was subtracted from this control to generate a change in polarisation (ΔmP), which was plotted on the activity graphs. Therefore, the data take into account the spontaneous hydrolysis of ATP. Each value is the mean of triplicate determinations with standard deviations (SD) shown. IC50 values were calculated using GraphPad Prism software with the nonlinear regression curve fitted to the log (inhibitor concentration) against the raw mP values on the linear portion of the standard curve.

MCF-7 cells = test: Colony forming assay, MCF-7; type: cell-based, human; conditions: for IC50: Homo sapiens, MCF7, 168 h, 7 days; for % Clonogenicity (MCF-7, 10 μM): percentage of survival colonies, 7-day incubation, standardised to DMSO control
Experimental: as §1
Cells were seeded in a 12‐well plate at 400 cells per well. One hour after the seeding of the cells, compounds (1 mM, 100 μM, 10 μM, 1 μM, 100 nM, 10 nM) or vehicle were added into the wells in triplicate (DMSO vehicle 0.1% and 1%). After 7 days, colonies were stained with 350 μL of crystal violet solution, incubated for 30 min at room temperature, then wells were washed in water and dried. At least the best 3 independent experiments out of 5 independent repeats were used to perform the statistical analysis of the results. Colonies were counted by GelCount Colony Counter (Oxford Optronix Ltd.) using the GelCount 1.1.8.0 software. Assay end points were normalised to 0% (DMSO only) and fitted to a semi‐log plot using at least n = 3 technical replicates (n = 6 for DMSO control and N = 3 independent replicates). The curve fit was performed using GraphPad Prism.
as §3

MDA-MB-231 cells = test: CellTiter-Blue cell viability assay, MDA-MB-231 (24 h); type: cell-based, human; conditions: for GI50: 24 h incubation time; for viability at 10 µM / % Viability (MDA-MB-231, 10 μM): CellTiter-Blue, 24 h incubation, 10 μM test compound, standardised to DMSO control
Experimental: as §1, §2, §3

SMILES	GI50 (HEK-293 cells)	viability at 24 h, 10 µM [1]	IC50 [2]	IC50 (MCF-7 cells)	% Clonogenicity (MCF-7, 10 μM) (MCF-7 cells)	GI50 (MDA-MB-231 cells; Homo sapiens, MDA-MB-231, 24 h)	viability at 10 µM (MDA-MB-231 cells; Homo sapiens, MDA-MB-231, 24 h)	% Viability (MDA-MB-231, 10 μM) (MDA-MB-231 cells)	GI50 (MDA-MB-231 cells)
COc1ccc(C2NC(=O)NC(C)=C2C(=O)OCc2ccccc2)c(F)c1 (centres unmarked) [Compound 5a, Benzyl 4‐(2‐Fluoro‐4‐Methoxyphenyl)‐6‐Methyl‐2‐Oxo‐1,2,3,4‐Tetrahydropyrimidine‐5‐Carboxylate]	71.5 µM	90.6 ± 3.35%	5.36 µM	5.03 µM	71.87 ± 4.77%	86.2 µM	91.33 ± 0.64%	–	–
COc1ccc(C2NC(=O)NC(C)=C2C(=O)OCc2ccc(OC)c(OC)c2)c(F)c1 (centres unmarked) [Compound 5b, 3,4‐Dimethoxybenzyl 4‐(2‐Fluoro‐4‐Methoxyphenyl)‐6‐Methyl‐2‐Oxo‐1,2,3,4‐Tetrahydropyrimidine‐5‐Carboxylate]	44.9 µM	99.9 ± 1.5%	13.1 µM	0.68 µM	71.39 ± 2.94%	72.1 µM	89.7 ± 1.37%	–	–
COc1ccc(COC(=O)C2=C(C)NC(=O)NC2c2ccc(Cl)cc2)cc1OC (centres unmarked) [Compound 5c, 3,4‐Dimethoxybenzyl‐4‐(4‐Chlorophenyl)‐6‐Methyl‐2‐Oxo‐1,2,3,4‐Tetrahydropyrimidine‐5‐Carboxylate]	12.6 µM	99.4 ± 3.16%	4.28 µM	2.46 µM	64.29 ± 3.69%	22.7 µM	< 80%	73.55 ± 3.50%	–
CC1=C(C(=O)OCc2ccccc2)C(c2ccc(OC(F)(F)F)cc2F)NC(=O)N1 (centres unmarked) [Compound 5f, Benzyl 4‐(2‐Fluoro‐4‐(Trifluoromethoxy)phenyl)‐6‐Methyl‐2‐Oxo‐1,2,3,4‐Tetrahydropyrimidine‐5‐Carboxylate]	16.4 µM	95.1 ± 3.82%	13.7 µM	2.29 µM	72.41 ± 3.21%	98.9 µM	85.7 ± 2.65%	–	–
COc1ccc(COC(=O)C2=C(C)NC(=O)NC2c2cccc(Cl)c2)cc1OC (centres unmarked) [Compound 5g, 3,4‐Dimethoxybenzyl 4‐(3‐Chlorophenyl)‐6‐Methyl‐2‐Oxo‐1,2,3,4‐Tetrahydropyrimidine‐5‐Carboxylate]	39.1 µM	96.7 ± 3.77%	32.6 µM	0.83 µM	50.04 ± 2.3%	19.3 µM	< 80%	72.16 ± 7.20%	–
COc1cccc(COC(=O)C2=C(C)NC(=O)NC2c2ccc(Cl)cc2)c1 (centres unmarked) [Compound 5h, 3‐Methoxybenzyl 4‐(4‐Chlorophenyl)‐6‐Methyl‐2‐Oxo‐1,2,3,4‐Tetrahydropyrimidine‐5‐Carboxylate]	12.3 µM	81 ± 2.36%	6.47 µM	9.08 µM	42.34 ± 4.80%	23.7 µM	88 ± 3.1%	–	–
COc1ccc(COC(=O)C2=C(C)NC(=O)NC2c2ccc(Cl)cc2)cc1 (centres unmarked) [Compound 5i, 4‐Methoxybenzyl 4‐(4‐Chlorophenyl)‐6‐Methyl‐2‐Oxo‐1,2,3,4‐Tetrahydropyrimidine‐5‐Carboxylate]	98.5 µM	94.3 ± 2.95%	9.59 µM	0.56 µM	8.39% and 8.39 ± 2.84%	40 µM	83.26 ± 0.69%	–	40 µM
COc1ccc(COC(=O)C2=C(C)NC(=O)NC2c2ccccc2Cl)cc1OC (centres unmarked) [Compound 5j, 3,4‐Dimethoxybenzyl 4‐(2‐Chlorophenyl)‐6‐Methyl‐2‐Oxo‐1,2,3,4‐Tetrahydropyrimidine‐5‐Carboxylate]	58 µM	93 ± 2.59%	32.5 µM	3.49 µM	58.18 ± 4.42%	65.7 µM	< 80%	76.50 ± 4.28%	–
COc1ccc(C2NC(=O)NC(C)=C2C(=O)OCc2ccc3c(c2)OCO3)cc1 (centres unmarked) [Compound 5k, Benzo[d] [1,3] Dioxol‐5‐ylmethyl 4‐(4‐Methoxyphenyl)‐6‐Methyl‐2‐Oxo‐1,2,3,4‐Tetrahydropyrimidine‐5‐Carboxylate]	63 µM	98.6 ± 1.31%	20.2 µM	2.46 µM	99.85 ± 3.27%	77.2 µM	98.7 ± 2.6%	–	–
CC1=C(C(=O)OCc2ccccc2)C(c2ccc(F)cc2)NC(=O)N1 (centres unmarked) [Compound 5l, Benzyl 4‐(4‐Fluorophenyl)‐6‐Methyl‐2‐Oxo‐1,2,3,4‐Tetrahydropyrimidine‐5‐Carboxylate]	52.9 µM	98 ± 1.89%	22.9 µM	0.89 µM	82.62 ± 2.93%	86.6 µM	100 ± 2.96%	–	–
